Measurements from ChEMBL document CHEMBL1129976, “New benzocycloalkylpiperazines, potent and selective 5-HT1A receptor ligands” (J Med Chem, 1997).

Legend:
[1] = target: D(2) dopamine receptor (Bos taurus) (UniProt P20288); experiment: Inhibition of [3H]YM-09151-2 binding to Dopamine receptor D2 of bovine striatal preparations at 10e-7 M
Bos taurus [2] = organism: Bos taurus; experiment: Inhibition of [3H]prazosin binding to Alpha-1 adrenergic receptor of calf frontal cortex at 10e-7 M; assay type: tissue-based
Bos taurus [3] = organism: Bos taurus; experiment: Inhibition of [3H]ketanserin binding to 5-hydroxytryptamine 2 receptor of bovine frontal cortex at 10e-7 M; assay type: tissue-based
[4] = target: T1, 5-hydroxytryptamine receptor 1A (Rattus norvegicus) (UniProt P19327); experiment: Inhibition of [3H]8-OH-DPAT binding to 5-hydroxytryptamine 1A receptor in rat hippocampal membranes at 10e-7 M; assay type: cell membranes; settings: Hippocampus, Membrane
T1 sequence (whole entry): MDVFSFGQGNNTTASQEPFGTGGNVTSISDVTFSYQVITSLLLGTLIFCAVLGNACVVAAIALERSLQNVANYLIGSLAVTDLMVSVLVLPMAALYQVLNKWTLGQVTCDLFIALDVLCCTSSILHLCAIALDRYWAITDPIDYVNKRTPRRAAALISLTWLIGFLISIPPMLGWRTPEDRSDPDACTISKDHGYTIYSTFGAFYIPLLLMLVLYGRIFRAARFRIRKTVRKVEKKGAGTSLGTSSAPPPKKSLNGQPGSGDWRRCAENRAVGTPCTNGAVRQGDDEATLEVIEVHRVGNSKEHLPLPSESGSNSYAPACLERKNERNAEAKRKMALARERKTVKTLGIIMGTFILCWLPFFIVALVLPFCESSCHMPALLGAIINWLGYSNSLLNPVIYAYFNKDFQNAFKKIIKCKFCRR

[5] = target: T2, Alpha-1A adrenergic receptor (Bos taurus, UniProt P18130); experiment: Binding affinity of compound towards Alpha-1 adrenergic receptor using [3H]prazosin 0.5 nM ligand in frontal cortex calf was determined; assay type: tissue-based
T2 sequence (P18130 whole entry): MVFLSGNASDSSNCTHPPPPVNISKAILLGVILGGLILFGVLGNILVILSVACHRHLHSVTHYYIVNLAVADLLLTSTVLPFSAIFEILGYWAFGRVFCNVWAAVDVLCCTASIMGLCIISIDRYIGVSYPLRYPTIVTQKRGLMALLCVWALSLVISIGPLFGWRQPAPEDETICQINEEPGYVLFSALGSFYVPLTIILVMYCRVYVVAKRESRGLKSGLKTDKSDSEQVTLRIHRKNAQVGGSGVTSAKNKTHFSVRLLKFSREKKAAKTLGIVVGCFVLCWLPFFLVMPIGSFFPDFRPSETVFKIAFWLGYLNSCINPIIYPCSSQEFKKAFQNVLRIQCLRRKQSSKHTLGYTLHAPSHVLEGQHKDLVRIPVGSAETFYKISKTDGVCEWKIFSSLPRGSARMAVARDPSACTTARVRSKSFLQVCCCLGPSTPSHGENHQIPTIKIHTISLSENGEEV

[6] = target: T3, 5-hydroxytryptamine receptor 1A (Rattus norvegicus, UniProt P19327); experiment: Inhibition of forskolin-activated adenylate cyclase (cAMP) activity at 5-hydroxytryptamine 1A receptor in rat hippocampus; assay type: functional, tissue-based
T3 sequence (P19327 whole entry): T1 sequence (whole entry)

[7] = target: Sigma non-opioid intracellular receptor 1 (Rattus norvegicus, UniProt Q9R0C9); experiment: Inhibition of [3H]DTG binding to sigma receptor in rat hippocampus; assay type: tissue-based
Sequence of Sigma non-opioid intracellular receptor 1 (Rattus norvegicus, UniProt Q9R0C9) (Q9R0C9 whole entry): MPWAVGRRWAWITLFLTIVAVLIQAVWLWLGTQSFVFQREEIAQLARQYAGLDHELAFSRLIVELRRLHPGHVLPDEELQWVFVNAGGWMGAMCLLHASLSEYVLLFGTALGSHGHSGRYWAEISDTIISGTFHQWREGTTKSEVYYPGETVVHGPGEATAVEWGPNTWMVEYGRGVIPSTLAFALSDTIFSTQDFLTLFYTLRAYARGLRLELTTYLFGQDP

Rattus norvegicus = experiment: in vivo behavioral test for Lower Lip Retraction(LLR) (msad=minimum significant active dose) in rats; assay type: functional
[8] = Displacement of [3H]-prazosin from Alpha-1 adrenergic receptor of bovine frontal cortex; assay type: tissue-based, Bos taurus
Histamine H1 receptor = Histamine H1 receptor (Rattus norvegicus, UniProt P31390); experiment: Inhibition of [3H]pyrilamine binding to Histamine H1 receptor in rat cortex
Sequence of Histamine H1 receptor (P31390 whole entry): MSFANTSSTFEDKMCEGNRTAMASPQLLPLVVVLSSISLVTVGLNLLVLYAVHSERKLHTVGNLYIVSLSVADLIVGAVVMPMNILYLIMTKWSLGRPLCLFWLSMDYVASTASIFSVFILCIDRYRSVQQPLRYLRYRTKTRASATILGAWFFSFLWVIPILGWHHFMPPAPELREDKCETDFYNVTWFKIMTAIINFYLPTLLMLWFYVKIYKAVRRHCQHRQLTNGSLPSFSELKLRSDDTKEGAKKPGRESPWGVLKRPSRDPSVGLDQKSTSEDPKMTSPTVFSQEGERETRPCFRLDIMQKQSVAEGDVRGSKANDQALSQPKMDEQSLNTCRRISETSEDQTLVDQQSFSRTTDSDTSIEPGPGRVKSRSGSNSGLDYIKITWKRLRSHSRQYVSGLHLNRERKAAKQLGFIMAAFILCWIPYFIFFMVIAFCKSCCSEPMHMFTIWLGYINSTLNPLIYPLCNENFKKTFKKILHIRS

[9] = Inhibition of [3H]ketanserin binding to 5-hydroxytryptamine 2 receptor of bovine frontal cortex; assay type: tissue-based, Bos taurus
D(2) dopamine receptor = D(2) dopamine receptor (Bos taurus, UniProt P20288); experiment: Inhibition of [3H]raclopride binding to Dopamine receptor D2 of bovine striatum; assay type: tissue-based
Sequence of D(2) dopamine receptor (P20288 whole entry): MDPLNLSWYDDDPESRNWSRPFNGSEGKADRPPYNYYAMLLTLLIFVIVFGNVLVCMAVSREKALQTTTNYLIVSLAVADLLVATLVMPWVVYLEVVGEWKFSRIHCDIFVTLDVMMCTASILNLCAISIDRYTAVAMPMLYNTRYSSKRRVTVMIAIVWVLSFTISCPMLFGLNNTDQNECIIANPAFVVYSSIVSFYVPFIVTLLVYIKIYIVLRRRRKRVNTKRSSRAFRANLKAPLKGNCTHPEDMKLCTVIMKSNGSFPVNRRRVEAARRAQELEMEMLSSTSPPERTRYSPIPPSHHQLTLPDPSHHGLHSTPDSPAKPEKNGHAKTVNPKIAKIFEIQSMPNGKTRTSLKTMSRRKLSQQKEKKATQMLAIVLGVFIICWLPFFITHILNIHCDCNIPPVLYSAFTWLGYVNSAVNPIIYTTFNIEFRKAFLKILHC

D(1A) dopamine receptor [10] = target: T4, D(1A) dopamine receptor (Bos taurus, UniProt Q95136); experiment: Inhibition of [3H]SCH-23390 binding to Dopamine receptor D1 of bovine striatum; assay type: tissue-based
T4 sequence (Q95136 whole entry): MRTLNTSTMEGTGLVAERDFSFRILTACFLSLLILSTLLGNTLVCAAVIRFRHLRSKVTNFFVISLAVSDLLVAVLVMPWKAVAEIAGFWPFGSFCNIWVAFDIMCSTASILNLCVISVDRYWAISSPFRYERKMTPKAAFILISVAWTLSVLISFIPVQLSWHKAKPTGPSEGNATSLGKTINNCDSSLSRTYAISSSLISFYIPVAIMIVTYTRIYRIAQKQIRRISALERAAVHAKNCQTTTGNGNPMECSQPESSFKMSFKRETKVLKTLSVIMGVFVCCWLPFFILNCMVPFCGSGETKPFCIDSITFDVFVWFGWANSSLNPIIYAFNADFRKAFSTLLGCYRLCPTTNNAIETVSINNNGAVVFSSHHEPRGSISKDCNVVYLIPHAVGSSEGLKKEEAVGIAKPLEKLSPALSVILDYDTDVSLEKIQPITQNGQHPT

[11] = target: T3, 5-hydroxytryptamine receptor 1A; experiment: Displacement of [3H]8-OH-DPAT from 5-hydroxytryptamine 1A receptor of rat hippocampal membranes; assay type: cell membranes, Membrane
D(1A) dopamine receptor [12] = target: T4, D(1A) dopamine receptor; experiment: Binding affinity of compound towards Dopamine receptor D1 using [3H]SCH-23390 (0.5 nM) ligand in striatum bovine was determined; assay type: tissue-based
[13] = target: 5-hydroxytryptamine receptor 2A (Bos taurus, UniProt Q75Z89); experiment: Binding affinity against 5-hydroxytryptamine 2 receptor
Sequence of 5-hydroxytryptamine receptor 2A (Q75Z89 whole entry): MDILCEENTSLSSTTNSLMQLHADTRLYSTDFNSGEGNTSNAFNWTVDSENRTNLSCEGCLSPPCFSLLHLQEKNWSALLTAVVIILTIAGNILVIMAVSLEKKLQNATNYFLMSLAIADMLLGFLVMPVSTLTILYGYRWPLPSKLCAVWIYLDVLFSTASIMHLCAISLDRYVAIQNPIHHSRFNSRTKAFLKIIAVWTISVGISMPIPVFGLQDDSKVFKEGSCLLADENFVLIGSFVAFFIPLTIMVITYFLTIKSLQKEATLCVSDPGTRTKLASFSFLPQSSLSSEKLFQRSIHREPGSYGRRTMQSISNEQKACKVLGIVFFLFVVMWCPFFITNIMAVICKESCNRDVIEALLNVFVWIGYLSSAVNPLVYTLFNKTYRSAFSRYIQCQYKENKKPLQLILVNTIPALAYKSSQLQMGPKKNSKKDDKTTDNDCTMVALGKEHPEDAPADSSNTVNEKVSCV

[14] = target: Sigma non-opioid intracellular receptor 1 (Homo sapiens, UniProt Q99720); experiment: Binding affinity against sigma receptor
Sequence of Sigma non-opioid intracellular receptor 1 (Homo sapiens, UniProt Q99720) (Q99720 whole entry): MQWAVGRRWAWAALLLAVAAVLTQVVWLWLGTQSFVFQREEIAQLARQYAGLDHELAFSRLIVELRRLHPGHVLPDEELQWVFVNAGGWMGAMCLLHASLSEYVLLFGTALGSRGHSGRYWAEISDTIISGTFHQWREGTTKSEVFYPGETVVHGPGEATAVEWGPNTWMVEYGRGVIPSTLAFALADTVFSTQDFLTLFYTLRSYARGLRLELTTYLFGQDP

D(1A) dopamine receptor [15] = target: D(1A) dopamine receptor (Mus musculus, UniProt Q61616); experiment: Binding affinity against Dopamine receptor D1
Sequence of D(1A) dopamine receptor (Mus musculus, UniProt Q61616) (Q61616 whole entry): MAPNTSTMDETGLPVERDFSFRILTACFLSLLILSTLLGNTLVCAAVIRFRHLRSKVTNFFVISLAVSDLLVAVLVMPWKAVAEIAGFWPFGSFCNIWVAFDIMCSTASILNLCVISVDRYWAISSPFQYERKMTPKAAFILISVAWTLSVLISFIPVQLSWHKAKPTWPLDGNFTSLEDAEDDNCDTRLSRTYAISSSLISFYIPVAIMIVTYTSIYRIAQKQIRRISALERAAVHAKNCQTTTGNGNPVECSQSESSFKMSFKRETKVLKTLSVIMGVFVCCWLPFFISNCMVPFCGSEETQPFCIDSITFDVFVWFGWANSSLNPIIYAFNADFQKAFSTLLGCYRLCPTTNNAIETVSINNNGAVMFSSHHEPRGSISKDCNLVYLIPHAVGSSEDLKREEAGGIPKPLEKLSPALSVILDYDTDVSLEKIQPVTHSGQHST

[16] = target: 5-hydroxytryptamine receptor 1D (Sus scrofa, UniProt P79400); experiment: Binding affinity against 5-hydroxytryptamine 1D receptor using [3H]5-HT in pig striatum + frontalCortex; assay type: tissue-based
Sequence of 5-hydroxytryptamine receptor 1D (P79400 whole entry): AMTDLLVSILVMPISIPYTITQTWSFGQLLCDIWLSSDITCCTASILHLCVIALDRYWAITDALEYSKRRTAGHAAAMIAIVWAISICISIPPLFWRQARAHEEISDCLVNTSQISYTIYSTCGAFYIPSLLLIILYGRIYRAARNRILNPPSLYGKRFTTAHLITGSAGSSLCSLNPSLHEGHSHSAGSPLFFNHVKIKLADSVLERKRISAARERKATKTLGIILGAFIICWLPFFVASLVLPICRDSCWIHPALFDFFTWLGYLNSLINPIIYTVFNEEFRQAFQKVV

[17] = target: T5, 5-hydroxytryptamine receptor 3B (Mus musculus, UniProt Q9JHJ5); experiment: Inhibition of [3H]BRL-43694 binding to 5-hydroxytryptamine 3 receptor in NG cells 108-15; assay type: cell-based
T5 sequence (Q9JHJ5 whole entry): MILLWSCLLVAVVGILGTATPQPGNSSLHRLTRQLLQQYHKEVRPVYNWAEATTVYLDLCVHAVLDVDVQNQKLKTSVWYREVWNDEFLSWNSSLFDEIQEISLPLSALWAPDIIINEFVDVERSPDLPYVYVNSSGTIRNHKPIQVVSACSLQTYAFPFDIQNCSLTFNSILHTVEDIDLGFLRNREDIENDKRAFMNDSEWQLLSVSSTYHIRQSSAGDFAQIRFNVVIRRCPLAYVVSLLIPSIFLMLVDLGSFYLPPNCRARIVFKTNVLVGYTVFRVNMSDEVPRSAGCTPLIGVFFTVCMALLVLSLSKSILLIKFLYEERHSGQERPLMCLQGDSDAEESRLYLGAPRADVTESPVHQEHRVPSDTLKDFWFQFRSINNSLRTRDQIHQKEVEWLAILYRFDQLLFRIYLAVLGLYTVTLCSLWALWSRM

[18] = target: T2, Alpha-1A adrenergic receptor; experiment: Inhibition of [3H]prazosin binding to Alpha-1 adrenergic receptor in bovine frontal cortex; assay type: tissue-based

Sequence of D(2) dopamine receptor (Bos taurus) (P20288 whole entry): as the sequence (P20288 whole entry) above

Structure (SMILES) | inhibition [1] [%] | inhibition (Bos taurus [2]) [%] | inhibition (Bos taurus [3]) [%] | inhibition [4] [%] | IC50 [6] [nM] | Ki [7] [nM] | Ki [8] [nM] | Ki (D(2) dopamine receptor) [nM] | Ki (D(1A) dopamine receptor [10]) [nM] | Ki [11] [nM] | further results
COc1ccc(C(=O)NCCN2CCN(C3CCCCc4ccccc43)CC2)cc1 (stereo not drawn) | 60 | 0 | 10 | 11 |  |  |  |  |  |  | 
COc1cccc(OC)c1OCCNCC1COc2ccccc2O1 (stereo not drawn) |  |  |  |  |  |  |  |  |  |  | Ki [5]: 0.6 nM
O=C(NCCN1CCN(C2CCCc3ccccc32)CC1)c1ccc(F)cc1 (single isomer, unassigned; (-)) |  |  |  |  | 15 | 130 | 124 | 70 | 3090 |  | LLR msad (Rattus norvegicus): 2.25 mg/kg; Ki (Histamine H1 receptor): 58 nM; Ki ([9]; read-out: Ki): 1380 nM
O=C(NCCN1CCN(C2CCCCc3ccccc32)CC1)c1ccc(F)cc1 (stereo not drawn) | 31 | 0 | 23 | 22 |  |  |  |  |  |  | 
O=C(NCCCN1CCN(C2CCCc3ccccc32)CC1)c1ccccc1 (stereo not drawn) | 2 | 11 | 17 | 39 |  |  |  |  |  |  | 
Cc1ccc(C(=O)NCCN2CCN(C3CCCCc4ccccc43)CC2)cc1 (stereo not drawn) | 47 | 0 | 14 | 0 |  |  |  |  |  |  | 
O=C(NCCN1CCN(C2CCCc3ccccc32)CC1)c1ccccc1 (single isomer, unassigned; (-)) |  |  |  |  | 14 |  | 190 | 130 |  | 0.4 | LLR msad (Rattus norvegicus): 2.75 mg/kg; Ki (Histamine H1 receptor): 70 nM
O=C(NCCN1CCN(C2CCCc3ccccc32)CC1)c1ccc(Cl)cc1 (stereo in doubt; (+)-34) |  |  |  |  | 1500 | 200 | 8380 | 700 | 19700 | 210 | Ki [9]: 3800 nM
O=C(NCCN1CCN(C2CCCc3ccccc32)CC1)c1ccc(F)cc1 (single isomer, unassigned; (+)) |  |  |  |  | 1450 | 190 | 710 | 740 |  | 50 | Ki ([9]; read-out: Ki): 1300 nM
OCCN1CCN(CC/C=C2\c3ccccc3Sc3ccc(C(F)(F)F)cc32)CC1 [E-FLUPENTIXOL] |  |  |  |  |  |  |  |  |  |  | Ki (D(1A) dopamine receptor [12]): 18 nM
COc1ccc(C(=O)NCCN2CCN(C3CCc4ccccc43)CC2)cc1 (stereo not drawn) | 11 | 6 | 17 | 45 |  |  |  |  |  |  | 
O=C(NCCN1CCN(C2CCCc3ccccc32)CC1)c1ccccc1 (stereo in doubt; 32) [listing 1 of 2 here] | 4 | 4 | 0 | 93 |  |  |  |  |  |  | 
O=C(NCCN1CCN(C2CCc3ccccc32)CC1)c1ccc(F)cc1 (stereo not drawn) | 0 | 36 | 0 | 69 |  |  |  |  |  |  | 
O=C(NCCN1CCN(C2CCCc3ccccc32)CC1)c1ccc(F)cc1 (stereo in doubt; 33) [listing 1 of 2 here] | 3 | 22 | 17 | 88 |  |  |  |  |  |  | 
CCCN(CCC)C1CCc2cccc(O)c2C1 (stereo not drawn) [8-OH-DPAT] |  |  |  |  |  | 5240 | 9460 | 2380 | 87300 |  | Ki [13]: > 1000 nM; LLR msad (Rattus norvegicus): 2.2 mg/kg; Ki [14]: > 2430 nM; Ki (D(1A) dopamine receptor [15]): > 1000 nM; Ki ([9]; read-out: Ki): 1100 nM
O=C1CC2(CCCC2)CC(=O)N1CCCCN1CCN(c2ncccn2)CC1 [BUSPIRONE] |  |  |  |  |  |  | 1320 | 44 | 6100 |  | Ki [13]: 178 nM; Ki (D(1A) dopamine receptor [15]): > 1000 nM; Ki ([9]; read-out: Ki): 1250 nM
Cc1ccc(C(=O)NCCN2CCN(C3CCCc4ccccc43)CC2)cc1 (stereo not drawn) | 5 | 0 | 6 | 42 |  |  |  |  |  |  | 
O=C(NCCN1CCN(C2CCCc3ccccc32)CC1)c1ccccc1 (stereo in doubt; 32) [listing 2 of 2 here] |  |  |  |  | 36 | 90 | 150 | 110 | 21900 | 1.1 | Ki [16]: 6920 nM; Ki (Histamine H1 receptor): 30 nM; Ki ([9]; read-out: Ki): 710 nM; Ki [17]: 3470 nM
O=C(NCCN1CCN(C2CCCc3ccccc32)CC1)c1ccc(F)cc1 (stereo in doubt; 33) [listing 2 of 2 here] |  |  |  |  | 52 | 280 | 80 | 70 | 12000 | 1.5 | Ki [16]: 9770 nM; Ki (Histamine H1 receptor): 140 nM; Ki ([9]; read-out: Ki): 1180 nM; Ki [17]: 3470 nM
O=C(NCCN1CCN(C2CCCc3ccccc32)CC1)c1ccc(Cl)cc1 (stereo in doubt; 34) [listing 1 of 2 here] | 29 | 23 | 6 | 86 |  |  |  |  |  |  | 
O=C(CCCN1CCN(C2CCCc3ccccc32)CC1)c1ccc(F)cc1 (stereo not drawn) | 74 | 1 | 20 | 37 | 210 | 30 |  | 110 | 1000 | 17 | Ki [18]: 18 nM; LLR msad (Rattus norvegicus): >64 mg/kg; Ki (Histamine H1 receptor): 42 nM; Ki ([9]; read-out: Ki): 66 nM; Ki [17]: 3160 nM
COc1ccc(C(=O)NCCN2CCN(C3CCCc4ccccc43)CC2)cc1 (stereo not drawn) | 7 | 0 | 28 | 63 |  |  |  |  |  |  | 
O=C(NCCN1CCN(C2CCCc3ccccc32)CC1)c1ccc(Cl)cc1 (stereo in doubt; (-)-34) |  |  |  |  | 38 | 1250 | 450 | 480 | 27000 | 4 | LLR msad (Rattus norvegicus): 2.5 mg/kg; Ki [9]: 2700 nM
O=C(NCCN1CCN(C2CCCCc3ccccc32)CC1)c1ccccc1 (stereo not drawn) | 7 | 0 | 37 | 51 |  |  |  |  |  |  | 
O=C(NCCCN1CCN(C2CCCc3ccccc32)CC1)c1ccc(F)cc1 (stereo not drawn) | 0 | 6 | 19 | 68 |  |  |  |  |  |  | 
O=C(NCCN1CCN(C2CCCc3ccccc32)CC1)c1ccc(Cl)cc1 (stereo in doubt; 34) [listing 2 of 2 here] |  |  |  |  | 75 |  | 410 | 120 |  | 10 | Ki [9]: 1000 nM
